In brackets after ≈: the same amount, converted by molar mass.

For the data set the following is noted: buffer; pH 7.4; 200.0 µM.
By kinetic solubility is commonly meant the concentration staying in solution when a stock, usually in DMSO, is diluted into the medium. Turning to `CC(C)N(Cc1ccccc1)C(=O)c1ccc2c(c1)OCO2`, the solubility (kinetic) is 0.0428 mg/mL (≈ 144 µM). As for `COc1ccccc1C(c1c(N)n(C)c(=O)n(C)c1=O)C(C)[N+](=O)[O-]` (configuration not stated), the figure is over 0.0523 mg/mL; as for `COCCNC(=O)c1ccccc1NC(=O)CSc1ccc(C)cc1`, 0.0366 mg/mL (≈ 102 µM).

As for `COCCC(=O)N1CCc2c([nH]c3ccccc23)C1C(C)(C)C` (configuration not stated), the kinetic solubility is over 0.0472 mg/mL.

`CCOC(=O)c1c(C)[nH]c(C)c1C(=O)COC(=O)c1cccnc1OCC`: the solubility (kinetic) is over 0.0562 mg/mL. As for `CC(=O)N1CCN(C(=O)COC(=O)c2ccc(S(C)(=O)=O)cc2)CC1`, the figure is over 0.0553 mg/mL; as for `CC(=O)N(C)Cc1ccc(C(=O)CSc2nnc(C3CC3)n2C2CC2)cc1`, over 0.0577 mg/mL.

For the compound `CCc1ccc(OCC(=O)Nc2ccc3oc(=O)ccc3c2)cc1`, the solubility (kinetic) turned out to be 0.0015 mg/mL (≈ 4.64 µM).

For `CCc1c(C)nc2c(OC)cccc2c1Cl`, the kinetic solubility worked out at 0.0077 mg/mL (≈ 32.7 µM). In turn, `COc1c(F)c(F)cc2c(=O)c(C(=O)O)cn(C3CC3)c12` yielded a kinetic solubility of over 0.0443 mg/mL.

`CCN(C(=S)NC(=O)c1ccco1)c1cccc2ccccc12`: the solubility (kinetic) stood at 0.0465 mg/mL (≈ 143 µM). As for `CCOC(=O)C1CCN(C(=S)Nc2ccc(C)cc2)CC1`, the figure is 0.0199 mg/mL (≈ 64.9 µM); as for `Cc1cc(OC(F)F)ccc1NC(=S)NC1CCCC1`, over 0.0451 mg/mL; as for `CC(NC(=O)CCNC(=O)c1ccco1)c1ccccc1` (configuration not stated), over 0.0429 mg/mL.

`CCOC(=O)c1sc(NC(=O)CSC(=S)N2CCOCC2)nc1C` registered a solubility (kinetic) of 0.0006 mg/mL (≈ 1.54 µM).

Regarding `O=C(CSc1nncs1)Nc1ccc2c(c1)OCO2`, the kinetic solubility was over 0.0443 mg/mL. Then `COCC(=O)Nc1ccc(N2CCOCC2)c(S(=O)(=O)Nc2ccc(OC)cc2)c1`, with over 0.0653 mg/mL. As for `CCn1cnc2cc(NCc3ccccc3Cl)ccc21`, the figure is over 0.0429 mg/mL; as for `O=C1CSC(c2ccccc2O)N1Cc1ccccc1` (configuration not stated), over 0.0428 mg/mL; as for `Cc1ccccc1NC(=O)c1ccccc1-c1ccccc1`, 0.0365 mg/mL (≈ 127 µM). `C=CCOC(=O)C1=C(C)OC(N)=C(C#N)C1c1ccco1` (configuration not stated): the solubility (kinetic) amounted to 0.0096 mg/mL (≈ 33.5 µM). The compound `Cc1cccc(C)c1OCC(=O)NCC1CCCO1` (configuration not stated) came in with a solubility (kinetic) of 0.0395 mg/mL (≈ 150 µM). As for `O=C(NC1CCNCC1)C1CCCCC1`, the figure is over 0.0315 mg/mL.

Regarding `CN(CC(=O)Nc1ccc(Cl)cc1)C1CCCCC1`, the kinetic solubility came to 0.036 mg/mL (≈ 128 µM). As for `CC(OC(=O)CCc1c[nH]c2ccccc12)C(=O)c1ccccc1` (configuration not stated), the solubility (kinetic) stood at 0.0127 mg/mL (≈ 39.5 µM). As for `COc1ccccc1CN(C)C(=O)CN1C(=O)c2ccccc2C1=O`, the figure is 0.017 mg/mL (≈ 50.2 µM); as for `O=C(COC(=O)c1ccc(Cl)nc1)Nc1ccc2c(c1)OCO2`, over 0.0502 mg/mL; as for `Cc1cnc(C(=O)OCC(=O)Nc2ccc(C)c(S(=O)(=O)N3CCOCC3)c2)cn1`, over 0.0652 mg/mL. As to `Cc1ccc(NC(=O)Nc2cccc(F)c2)nc1`, the solubility (kinetic) was 0.0013 mg/mL (≈ 5.3 µM). Then `COc1ccc(/C=C/C(=O)OCC(=O)NC2CCCC(C)C2C)cc1` (configuration not stated), with 0.0061 mg/mL (≈ 17.7 µM). Take `COc1ccccc1N1C(=O)S/C(=C\c2cccs2)C1=O`: the kinetic solubility was under 0.0007 mg/mL. As for `Cc1noc(C)c1C(=O)OC(C)C(=O)NC(C)c1ccc(Cl)cc1Cl` (configuration not stated), the figure is 0.0106 mg/mL (≈ 27.5 µM). As for `O=C(CCCc1nc(-c2ccccc2)no1)NC1CCCCC1`, the figure is 0.0137 mg/mL (≈ 43.7 µM).

On to `O=C(CN1CCN(c2ccccn2)CC1)Nc1cc(F)ccc1F`, for which the solubility (kinetic) was over 0.0499 mg/mL. For `Cc1ccc(-c2onc3ccc(C4OCCO4)cc23)cc1`, the kinetic solubility came to 0.001 mg/mL (≈ 3.55 µM). As for `Cc1cc(C)c(OCCOCCN2CCCC2)c(C)c1`, the figure is 0.0302 mg/mL (≈ 109 µM); as for `COc1ccc2c(c1)c(C(C)=O)c(C)n2CCc1ccccc1`, under 0.0007 mg/mL. As for `O=C(Nc1cccc(Cl)c1)Nc1cnccn1`, the figure is 0.0013 mg/mL (≈ 5.23 µM); as for `CCOC(=O)c1c(C)[nH]c(-c2csc(C)n2)c1C`, 0.0275 mg/mL (≈ 104 µM); as for `O=C(CSc1nc2ccccc2o1)NC1CCCC1`, over 0.0415 mg/mL.

`NC(=O)c1ccccc1N=Cc1cccnc1` yielded a kinetic solubility of over 0.0338 mg/mL. On to `COc1ccccc1-n1ccnc1SCC(=O)NC(C)(C)C`, for which the kinetic solubility worked out at 0.0439 mg/mL (≈ 137 µM). As for `Cc1ccc(C)c(NC(=S)NC23CN4CN(CN(C4)C2)C3)c1`, the figure is over 0.0476 mg/mL. The compound `COc1ccc(CC(=O)Nc2ccc3c(c2)C(=O)N(CCC(=O)O)C3=O)cc1` displayed a solubility (kinetic) of 0.0532 mg/mL (≈ 139 µM). As for `CC(=O)c1ccc(NC(=O)Nc2cccnc2)cc1`, the figure is 0.0324 mg/mL (≈ 127 µM); as for `Cc1ccccc1OCC(=O)OCC(=O)NCc1ccccc1`, over 0.047 mg/mL. Then `Cn1c(=O)n(CCO)c(=O)c2c1nc(Br)n2Cc1ccccc1`, with over 0.0569 mg/mL; and `O=C1OC(c2ccccc2)=N/C1=C\C=C\c1ccco1`, with 0.002 mg/mL (≈ 7.54 µM); and `O=C(O)CC1S/C(=N/N=C/c2ccccn2)NC1=O` (configuration not stated), with over 0.0417 mg/mL. Regarding `COc1cccc(Oc2nc(N)ncc2[N+](=O)[O-])c1`, the solubility (kinetic) was 0.0323 mg/mL (≈ 123 µM). As for `O=C(/C=C/c1c(F)cccc1Cl)NCc1ccc2c(c1)OCO2`, the figure is under 0.0007 mg/mL; as for `COc1ccc(NC(C)=O)cc1NC(=O)c1ccc(C#N)cc1`, over 0.0464 mg/mL.

(Values after PubChem BioAssay AID1996.)
